In PMC6471485, “Selective Inhibitors of a Human Prolyl Hydroxylase (OGFOD1) Involved in Ribosomal Decoding” (Chemistry (Weinheim an Der Bergstrasse, Germany), 2019):
Entries after “also recorded” stand apart in the source; their conditions may differ.

Target: T1, OGFOD1 (Homo sapiens, UniProt Q8N543)
T1 sequence (Q8N543 1-542): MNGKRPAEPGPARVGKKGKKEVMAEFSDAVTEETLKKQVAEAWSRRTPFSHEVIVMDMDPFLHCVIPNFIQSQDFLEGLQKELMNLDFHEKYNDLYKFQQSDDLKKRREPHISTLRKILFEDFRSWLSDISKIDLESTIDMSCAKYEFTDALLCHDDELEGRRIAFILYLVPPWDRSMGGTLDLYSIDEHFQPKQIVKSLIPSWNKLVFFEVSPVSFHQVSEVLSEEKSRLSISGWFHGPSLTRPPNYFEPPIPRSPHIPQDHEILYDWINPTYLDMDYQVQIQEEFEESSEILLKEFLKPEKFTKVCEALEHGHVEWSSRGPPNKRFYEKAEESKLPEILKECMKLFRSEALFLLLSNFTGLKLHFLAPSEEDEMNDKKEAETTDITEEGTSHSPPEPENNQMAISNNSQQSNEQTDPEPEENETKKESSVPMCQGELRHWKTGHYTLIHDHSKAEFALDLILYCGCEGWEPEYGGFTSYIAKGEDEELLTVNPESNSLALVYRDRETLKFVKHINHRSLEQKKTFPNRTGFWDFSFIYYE
Experiment: CPMG-edited 1H NMR binding experiment with OGFOD1
Details: 30 µM inhibitor, 30 µM OGFOD1
Method: RapidFire integrator software (Agilent). Percent conversion was calculated in Excel, and IC50 curves were generated using Prism v. 7.0 (GraphPad).
Differential Scanning Fluorimetry (DSF) Assays
Assays consisted of enzyme (2 µM), inhibitor (200 µM), MnCl2 (50 µM), and SYPRO Orange (1:5000 dilution), all prepared in 50 mM HEPES, pH 7.5. Assays were conducted using white 96-well RT-PCR plates. An Opticon thermal cycler (MJ Research Inc) was used to control temperature and measure fluorescence. Data were processed using the OpticonMONITOR Analysis Software, while curve fitting was performed in Prism […]
Stable small-molecule inhibitor conformations were investigated using the MM2 force field method in ChemBio3D 11.0 (PerkinElmer Informatics). Protein structures were aligned using PyMOL version 2.0 (Schrödinger, LLC). The small-molecule inhibitors were then modelled into the protein active sites, overlaying them with the already contained inhibitor, if applicable (e.g., FG2216 with PHD2, PDB 3HQU; N-oxalylglycine with OGFOD1, PDB 4NHX). […]
CPMG Binding Experiments: Binding of the inhibitors to the proteins was monitored using Carr-Purcell-Meiboom-Gill (CPMG)-edited 1H spectra. […]
Competition Experiments by 2OG Displacement: 2OG displacement assays[12] were performed using CPMG-edited 1H spectra. […] The 2OG methylene resonance at 2.35 ppm was monitored. […]

Row | SMILES | binding to OGFOD1 by 1H CPMG NMR, in words (listed as CCT4) | binding to OGFOD1 by 1H CPMG NMR, in words (listed as CCT3)
1 | Cn1c(O)c(C(=O)CCc2cccs2)c(=O)n(C)c1=O [compound 42] | strong binding; also recorded: strongly bind to OGFOD1 | 
2 | Cn1c(O)c(C(=O)CCc2ccccc2)c(=O)n(C)c1=O [compound 26] |  | strong binding; also recorded: strongly bind to OGFOD1
